The values that follow come from patent US9630943B2, “Tetrahydronaphthyl(thio) carboxamides” (BAYER CROPSCIENCE AG, priority 2012, dated 2017).

The term chromatographic logP denotes lipophilicity estimated from chromatographic retention. High values mean higher lipophilicity, low ones lower lipophilicity.

SMILES strings stand for the structures.

Data set [1] deals with Botrytis cinerea. Nature of the data set: In vivo preventive test on Botrytis cinerea (grey mould). The conditions noted are these: gherkin plants, preventive spray, dose 100 ppm, grading 4 to 5 days after contamination. How it is done:
Gherkin plants (“Vert petit de Paris” variety), sown in starter cups on a 50/50 peat soil-pozzolana substrate and grown at 24° C., are treated at the Z11 cotyledon stage by spraying with the active ingredient prepared as described above. Plants, used as controls, are treated with the mixture of acetone/tween/DMSO/water not containing the active material. After 24 hours, the plants are contaminated by spraying the cotyledons with an aqueous suspension of cryopreserved Botrytis cinerea spores (50 000 spores per ml). The spores are suspended in a nutrient solution composed of 10 g/L of PDB, 50 g/L of D-Fructose, 2 g/L of NH4NO3 and 1 g/L of KH2PO4. […] Grading (% of efficacy) is carried out 4 to 5 days after the contamination, in comparison with the control plants.

Data set [2] deals with Pyrenophora teres. Nature of the data set: In vivo preventive test on Pyrenophora teres (net blotch on barley). The conditions noted are these: barley plants, preventive spray, dose 100 ppm, grading 14 days after contamination. How it is done:
Barley plants (“Plaisant” variety), sown in starter cups on a 50/50 peat soil-pozzolana substrate and grown at 22° C., are treated at the 1-leaf stage (10 cm height) by spraying with the active ingredient prepared as described above. Plants, used as controls, are treated with the mixture of acetone/tween/DMSO/water not containing the active material. After 24 hours, the plants are contaminated by spraying the leaves with an aqueous suspension of Pyrenophorateres spores (12 000 spores per ml). The spores are collected from a 12-day-old culture. […] Grading (% of efficacy) is carried out 14 days after the contamination, in comparison with the control plants.

Data set [3] deals with Phakopsora pachyrhizi. Nature of the data set: In vivo preventive test on Phakopsora pachyrhizi (soybeans). The conditions noted are these: soybean plants, preventive spray, dose 10 ppm, evaluated 7 days after inoculation.
Data set [4] can be described thus: Measurement of logP values by HPLC on reversed phase columns (EEC directive 79/831 Annex V.A8). Format: physicochemical.
Data set [5] relates to Sphaerotheca fuliginea. Kind of data set: In vivo preventive test on Sphaerotheca fuliginea (powdery mildew on cucurbits). The note with it: gherkin plants, preventive spray, dose 100 ppm, grading 12 days after contamination. Here is the method:
Gherkin plants (“Vert petit de Paris” variety), sown in starter cups on a 50/50 peat soil-pozzolana substrate and grown at 24° C., are treated at the Z11 cotyledon stage by spraying with the active ingredient prepared as described above. Plants, used as controls, are treated with the mixture of acetone/tween/DMSO/water not containing the active material. After 24 hours, the plants are contaminated by spraying the cotyledons with an aqueous suspension of Sphaerotheca fuliginea spores (100 000 spores per ml). The spores are collected from infected plants. […] Grading (% of efficacy) is carried out 12 days after the contamination, in comparison with the control plants.

In data set [6] the test system is Pyricularia oryzae. It counts as in vivo. The note with it: rice plants, preventive spray, dose 500 ppm, grading 6 days after contamination.
Data set [7] concerns Septoria tritici. Nature of the data set: In vivo preventive test on Septoria tritici (leaf spot on wheat). The conditions noted are these: wheat plants, preventive spray, dose 100 ppm, grading 24 days after contamination. Here is the method:
Wheat plants (“Scipion” variety), sown in starter cups on a 50/50 peat soil-pozzolana substrate and grown at 22° C., are treated at the 1-leaf stage (10 cm height) by spraying with the active ingredient prepared as described above. Plants, used as controls, are treated with the mixture of acetone/tween/DMSO/water not containing the active material. After 24 hours, the plants are contaminated by spraying the leaves with an aqueous suspension of cryopreserved Septoria tritici spores (500 000 spores per ml). […] Grading (% of efficacy) is carried out 24 days after the contamination, in comparison with the control plants.

Data set [8] deals with Uromyces appendiculatus. Nature of the data set: In vivo preventive test on Uromyces appendiculatus (bean rust). The note with it: bean plants, preventive spray, dose 100 ppm, grading 11 days after contamination. Here is the method: Plants, used as controls, are treated with the mixture of acetone/tween/DMSO/water not containing the active material. After 24 hours, the plants are contaminated by spraying the leaves with an aqueous suspension of Uromyces appendiculatus spores (150 000 spores per ml). […] Grading (% of efficacy) is carried out 11 days after the contamination, in comparison with the control plants.

Turning to `CC(C)C1CCCc2c(NC(=O)c3cn(C)nc3C(F)F)cccc21` (centres unmarked) [Example 98], the biological efficacy in data set [1] is recorded as at least 90%; in data set [2] it was at least 90%; in data set [3] it was at least 70%. The “LogP[a]” value in data set [4] (method [a], HPLC on reversed phase columns) was 3.73^[a].
For the compound `Cc1nc(C(F)F)c(C(=S)Nc2cccc3c2CCC(C)(C)C3)s1` [Example 97, 4-(difluoromethyl)-N-(6,6-dimethyl-5,6,7,8-tetrahydronaphthalen-1-yl)-2-methyl-1,3-thiazole-5-carbothioamide], the biological efficacy in data set [5] was at least 80%. For the same compound, in data set [4] (pH 2.7), the chromatographic logP is 4.16.
Regarding `Cc1nc(C(F)F)c(C(=O)Nc2cccc3c2CCCC3(C)C)s1` [Example 3], the biological efficacy in data set [6] is listed as at least 90%. Moreover, the “LogP^[a]” value in data set [4] (method [a]) was 3.64^[a].
For the compound `CCCC1(C)CCCc2c(NC(=O)c3cn(C)nc3C(F)F)cccc21` (centres unmarked) [Example 94], the biological efficacy in data set [7] was at least 70%; in data set [8] it was at least 80%. Besides, in data set [4] (method [a]), the “LogP^[a]” value is 4.08^[a].
